Values of other authors in US20060148877A1, “Pharmaceutical formulations of celcoxib” (TransForm Pharmaceuticals, Inc., priority 2002, published 2006).

Settings: commercially available form (CELEBREX), neutral molecule

solubility in water: essentially insoluble in water
SMILES: Cc1ccc(-c2cc(C(F)(F)F)nn2-c2ccc(S(N)(=O)=O)cc2)cc1 [celecoxib, 4-[5-(4-methylphenyl)-3-(trifluoromethyl)-1H-pyrazol-1-yl]benzenesulfonamide]
